# Measured values reported in paper PMC7600710, “The Inhibition of Serine/Threonine Protein Phosphatase Type 5 Mediates Cantharidin Toxicity to Control Periplaneta americana (L.)” (Insects, 2020).
# B1: serine/threonine protein phosphatase type 5 (PaPP5), catalytic domain PaPP5c (Periplaneta americana) (protein)
# chain: YNGPKLEDGKVTLEFMQHLMKTYKEQGKLHRKYAYKILLDVKQLFMSQPSLVEITIPDDSKFTVCGDIHGQFYDLMNIFNLNGLPSPTNPYLFNGDFVDRGSFSVECIFTLFGFKLLYPEHFFMSRGNHESQTMNQMYGFEGEVKAKYTAQMSELFTEVYNWLPLAHCLNGRILVMHGGLFSRDDVTLEEIKEIDRNRQPPEEGLMCELLWSDPQPQVGRAPSKRGVGVQFGPDVTKKFLELNGLDYVIRSHEVKNEGYEVAHDGKCITVFSAPNYCDTMGNKGAFIVLKGKDMKPQYTTYEAVPHPNVKPVAYANSLLSLIC
# What was measured:
# [1] = target: T1, serine/threonine protein phosphatase type 5 (PaPP5), catalytic domain PaPP5c (Periplaneta americana, UniProt A0A3Q9NNI4); experiment: DiFMUP fluorescence phosphatase inhibition assay on purified recombinant PaPP5c; type: biochemical
# T1 construct: gene PP5; catalytic domain of PP5 (167-489 amino acids, PP5c), His-tagged, expressed in E. coli; full-length GenBank AZT88974.1
# T1 sequence (A0A3Q9NNI4 167-489): B1 chain
# purified protein = substrate: Cc1cc(=O)oc2c(F)c(OP(=O)(O)O)c(F)cc12; experiment: purified protein; details: Mn2+ (MnCl2 in expression, dialysis and assay buffer)
Molecule,IC50 [1] [nM],Km (purified protein) [µM]
C[C@@]12C(=O)OC(=O)[C@]1(C)[C@H]1CC[C@@H]2O1 [Cantharidin],390 ± 40,–
O=C1OC(=O)[C@H]2[C@@H]1[C@@H]1CC[C@H]2O1 [Norcantharidin],1870 ± 230,–
B1,–,144.10 ± 9.730
